{
  "source": "patent US20040175378A1",
  "about": "“Selected antibody compositions and methods for binding to aminophospholipids” (Board of Regents, The University of Texas System, priority 2002, published 2004)",
  "key": {"[1]": {"settings": "progressive disease before treatment; cited from earlier work"}, "[2]": {"assay": "Phospholipid specificity ELISA", "assay_type": "binding", "settings": "phospholipid-coated plates", "method": "The specificity of the antibodies was determined by ELISA using plates coated with the following phospholipids: PS, phosphatidylserine; PE, phosphatidylethanolamine; PI, phosphatidylinositol; PA, phosphatidic acid; PG, phosphatidylglycerol; PC, phosphatidylcholine; CL, cardiolipin; and SM, sphingomyelin."}, "[3]": {"assay": "ELISA binding to anionic phospholipids in 5 mM EDTA (Ca2+ requirement)", "method": "The specificity of the 9D2 antibody binding was validated by using control rat IgM of irrelevant specificity (Pharmingen, San Diego, Calif.). The specificity of annexin V binding to phospholipids, which is Ca^2+-dependent, was determined by diluting the reagent in the DPBS containing 5 mM EDTA. Additional negative controls consisted of washing the plates with the binding buffer containing 0.2% of a detergent Tween 20. This treatment extracts lipids, thus removing the phospholipid that was absorbed to plastic. Neither 9D2 antibody nor annexin V bound to detergent-washed plates."}, "[4]": {"system": "blood vessels of L540 Hodgkin tumors", "assay": "Annexin V inhibition of coaguligand-induced thrombosis in vivo", "design": "species or system SCID mice", "settings": "100 μg Annexin V 2 hours before 40 μg anti-VCAM-1•tTF", "method": "The ability of Annexin V to inhibit coaguligand-induced thrombosis in vivo was examined in L540 Hodgkin-bearing SCID mice. Tumors were grown in mice and two mice per group (tumor size 0.5 cm in diameter) were injected intravenously via the tail vein with one of the following reagents: a) saline; b) 100 μg of Annexin V; c) 40 μg of anti-VCAM-1•tTF; d) 100 μg of Annexin V followed 2 hours later by 40 μg of anti-VCAM-1•tTF.\nFour hours after the last injection mice were anesthetized and perfused with heparinized saline. Tumors were removed, fixed with 4% formalin, paraffin-embedded and stained with hematoxylene-eosin. The number of thrombosed and non-thrombosed blood vessels was counted and the percentage of thrombosis was calculated."}, "[5]": {"system": "Factor X", "assay": "Chromogenic assay of coaguligand-induced Factor Xa formation on bEnd.3 cells", "assay_type": "cell-based", "settings": "Annexin V 10 μg per ml; cells preincubated with anti-VCAM-1•tTF", "method": "The ability of Annexin V to affect Factor Xa formation induced by coaguligand was determined by a chromogenic assay. IL-1α-stimulated bEnd.3 cells were incubated with anti-VCAM-•tTF and permeabilized by saponin. Annexin V was added at concentrations ranging from 0.1 to 10 μg/ml and cells were incubated for 30 min. before addition of diluted Proplex T. The amount of Factor Xa generated in the presence or absence of Annexin V was determined. Each treatment was performed in duplicate and repeated at least twice.\nAnnexin V added to permeabilized cells preincubated with anti-VCAM-1•tTF inhibited the formation of factor Xa in a dose-dependent manner. In the absence of Annexin V, cell-bound coaguligand produced 95 ng of factor Xa per 10,000 cells per 60 min. The addition of increasing amounts of Annexin V (in the μg per ml range) inhibited factor Xa production. At 10 μg per ml, Annexin V inhibited factor Xa production by 58%."}, "[6]": {"system": "vascular endothelium of MDA-MB-231 breast tumors", "assay": "Double staining of orthotopic MDA-MB-231 tumors after i.v. biotinylated 9D2 or annexin V", "assay_type": "in vivo, mice", "settings": "1 h", "method": "In further studies, mice bearing MDA-MB-231 tumors (0.3-0.7 cm^3 in volume) were injected intravenously with 50 μg of biotinylated 9D2, control IgM or annexin V (six mice per group). Biotinylated reagents were first incubated with streptavidin-Cy3 conjugate, washed in PBS, then incubated with MECA 32 antibody followed by FITC-tagged anti-rat IgG secondary antibody. Single images, taken with appropriate filters for Cy3 (red) and FITC (green) fluorescence respectively, were captured by digital camera and transferred to a computer. […] The same method was used to analyze tumors from mice injected with control rat IgM or saline. The percentage of vessels with localized 9D2 or annexin V was calculated as follows: mean number of yellow vessels per field divided by mean number of green (total) vessels multiplied by 100.\nDouble staining studies were also performed in which mice bearing orthotopic MDA-MB-231 breast tumors were injected intravenously with biotinylated 9D2 antibody, biotinylated control IgM or biotinylated annexin V. One hour later, the mice were exsanguinated, and their tumors were removed and frozen sections were cut. The tumor sections were then stained with Cy3-conjugated streptavidin to detect the biotinylated proteins and with FITC-conjugated MECA32 to detect vascular endothelium. […]"}, "[7]": {"system": "anionic phospholipids on vascular endothelium", "assay": "Localization of 9D2 and annexin V in tumor bearing mice, indirect immunohistochemistry", "assay_type": "in vivo", "settings": "50 μg antibody or 100 μg biotinylated annexin V i.v., 60 min", "method": "To detect externally-positioned phospholipids, methods were performed essentially as previously described (Example V; Ran et al., 1998). Tumor-bearing SCID mice were injected intravenously with either 50 μg of 9D2 or biotinylated 9D2 antibody or 100 μg of biotinylated annexin V. Sixty min later mice were sacrificed and their blood circulation was exsanguinated and perfused with heparinized saline as previously described (Burrows et al., 1992). All major organs and tumor were harvested and snap-frozen for preparation of cryosections.\nSections were blocked with PBS containing 10% serum. To prevent loss of phospholipids during slide processing, detergents and organic solvents were omitted from blocking and washing buffers. Rat IgM was detected using goat anti rat IgM (μ specific)-HRP conjugate followed by development with carbazole or DAB (Fries et al., 1993). Biotinylated reagents were detected by streptavidin conjugated to HRP.\nTumor sections derived from mice injected with saline or rat IgM of irrelevant specificity served as negative controls. […] No signal was detected under these conditions. The number of positive vessels per high power field was determined at magnification of ×100. At least 10 fields per section were examined and the average percentage of positive vessels was calculated. […]\nStructures with localized 9D2 antibody or annexin V were identified as blood vessels by morphological appearance on DAB-stained sections and by co-incident staining with the pan-endothelial cell marker, MECA 32 on serial sections of frozen tissues. Quantification on DAB-stained sections was done by counting vessels stained by MECA 32, 9D2 or annexin V in serial sections of a tumor. […] At least 10 random fields per section (0.317 mm^2/field) were scored in blinded fashion by two independent observers. The mean numbers and standard errors of vessels stained by 9D2, annexin V or MECA 32 were calculated. The mean number of 9D2 or annexin V-positive vessels determined in each tumor type group was compared to the mean number of MECA 32-positive vessels in the same tumor group. […]"}, "[8]": {"system": "Vaccinia virus-infected U937 cells", "assay_type": "cell-based", "settings": "day 2 after infection, m.o.i. 2"}, "[9]": {"system": "orthotopic MDA-MB-435 breast cancer", "assay": "3G4 and ch3G4 tumor treatment", "assay_type": "in vivo, mice", "settings": "i.p. 800 μg day 15, 200 μg every two to three days, 400 μg day 35", "method": "Tumors were also established using MD-MBA-435s cells and treated as described above. […] The treatment of large L540 tumors, MDA-MB-231 and MD-MBA-435s tumor cells for 60 days is shown in FIG. 8D, FIG. 8E and FIG. 8F. The antibodies caused tumor vascular injury, thrombosis and necrosis and retarded tumor growth, with no evidence of toxicity.\nMD-MBA-435s lucerifase cells were obtained from Dr. Angels Sierra Jimenez, Barcelona, Spain and were grown in 10% DMEM. Mice were injected with tumor cells as described as above, and at 2 weeks post injection, the tumors were measured and the volume recorded. […] Treatment was initiated by IP injection (800 μg) at day 15 and continued with injections of 200 μg every two to three days until the final injection of 400 μg at day 35. Tumor volumes and mouse body weights were measured on injection days. Mice were sacrificed and perfused with saline for 12 minutes. The organs and tumor were removed, snap-frozen in liquid nitrogen and the tumor sectioned for immunohistochemistical analysis."}, "[10]": {"system": "tumor vascular endothelium of MDA-MB-435 tumors", "assay": "Localization of biotinylated ch3G4 in tumors", "assay_type": "in vivo, mice", "settings": "i.v., one hour", "method": "Localization of ch3G4 was examined in MDA-MB-435 human breast cancer cells growing in mice. Mice were injected intravenously with biotinylated ch3G4 or control IgG of irrelevant specificity. One hour later, the mice were exsanguinated, and their tumors were removed and frozen sections were cut. Biotinylated reagents were first incubated with streptavidin-Cy3 conjugate, washed in PBS, then incubated with MECA 32 antibody followed by FITC-tagged secondary antibody. Single images, taken with appropriate filters for Cy3 (red) and FITC (green) fluorescence respectively, were captured by digital camera and transferred to a computer."}, "[11]": {"assay": "Binding of chimeric 3G4 to phospholipid-coated ELISA plates", "description": "FIG. 21. […] Phospholipids (PS, PI, PE, PC, SM, CL, PG and PA) were adsorbed to plastic of microtiter plates."}, "[12]": {"system": "mCMV RVG102", "assay": "Survival of mCMV-infected mice", "assay_type": "in vivo, Balb/C mice", "settings": "1 mg/mouse i.p. day 1, 0.5 mg/mouse every four days until day 26; past 90 days"}},
  "data": [
    {"compound": "NC(=O)c1nnn(Cc2cc(Cl)c(C(=O)c3ccc(Cl)cc3)c(Cl)c2)c1N", "note": "[CAI, carboxyamidotriazole]", "values": [
      {"measurement": "cancer patients with disease stabilization", "setting": "[1]", "value": 49, "unit": "%"}
    ]},
    {"compound": "Annexin V: natural ligand that binds to anionic phospholipids; commercial biotinylated or recombinant human annexin V", "values": [
      {"measurement": "Relative Strength of Reactivity on ELISA", "setting": "[2]", "value": "PS = PE = PI = PA > CL > PG"},
      {"measurement": "binding to anionic phospholipids in the presence of 5 mM EDTA", "setting": "[3]", "value": "abolished in the presence of 5 mM EDTA"},
      {"measurement": "coaguligand-induced intravascular thrombosis and changes in tumor cell morphology", "setting": "[4]", "value": "completely abolished"},
      {"measurement": "inhibition of factor Xa production", "setting": "[5]", "value": 58, "unit": "%"},
      {"measurement": "MECA 32 positive vessels that bound the reagent", "setting": "[6]", "value": "About 40%"},
      {"measurement": "positive vessels of MECA 32-stained vessels per field, mean ± SE", "setting": "[7]; B16 tumor", "value": "21.3 ± 6.6", "unit": "%"},
      {"measurement": "positive vessels of MECA 32-stained vessels per field, mean ± SE", "setting": "[7]; L540cy tumor", "value": "16.7 ± 3.9", "unit": "%"},
      {"measurement": "positive vessels of MECA 32-stained vessels per field, mean ± SE", "setting": "[7]; MDA-MB-231 tumor", "value": "45.3 ± 5.6", "unit": "%"}
    ]},
    {"compound": "ch3G4: human-mouse chimeric 3G4: murine variable regions on human γ1 and κ constant regions, expressed in CHO cells", "values": [
      {"measurement": "binding to virus-infected vs uninfected cells (FACS)", "setting": "[8]", "value": "significant shift"},
      {"measurement": "tumor growth as opposed to control", "setting": "[9]", "value": "effectively retarded tumor growth"},
      {"measurement": "localization to tumor vascular endothelium", "setting": "[10]", "value": "binds to the tumor vascular endothelium"},
      {"measurement": "binding to phospholipid-coated ELISA plates", "setting": "[11]", "value": "bound at least as did well as the murine 3G4"},
      {"measurement": "survival", "setting": "[12]", "value": 80, "unit": "%"}
    ]}
  ]
}
